Experimental data as given in ChEMBL document CHEMBL1201862, “PubChem BioAssay data set” (2004).
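Cultured in 96-well plates, cells were exposed to test compound for 48 hours across five concentrations. GI50 marks 50% less growth.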 Active and inactive are the calls of the source. Cut-off read from the data, not from the text of the source: active = GI50 up to about 1.1 µM and inactive = higher.

Tests used:
Experiment in all cases: NCI anticancer screen, dose series, 48 h
DLD-1 = system: DLD-1
M19-MEL = system: M19-MEL
HOP-18 = system: HOP-18
RXF 631 = system: RXF 631
SNB-78 = system: SNB-78
DMS-273 = system: DMS-273
DMS-114 = system: DMS-114
XF498 = system: XF498
KM-20L2 = system: KM-20L2

Measured: GI50

COc1ccc(/C=N\O[Si](C)(C)C(C)(C)C)cc1O[Si](C)(C)C(C)(C)C
inactive: DLD-1 17.9 µM | M19-MEL 18.2 µM | HOP-18 15.3 µM | RXF 631 21.1 µM | SNB-78 19.3 µM | DMS-273 19.3 µM | DMS-114 18.5 µM | XF498 18.4 µM | KM-20L2 28.8 µM
